Active and inactive are the calls of the source. The calls are words filed in the database; no cut-off is given here.
Experiments:
[1] = molecular target: T1, Dihydrofolate reductase (Homo sapiens) (UniProt P00374); experiment: Competitive inhibition of human dihydrofolate reductase at 30 uM using varying levels of dihydrofolic acid as substrate preincubated for 1 hr in presence of NADPH followed by substrate addition by Line weaver-Burk based double reciprocal plot analysis
T1 sequence (whole entry): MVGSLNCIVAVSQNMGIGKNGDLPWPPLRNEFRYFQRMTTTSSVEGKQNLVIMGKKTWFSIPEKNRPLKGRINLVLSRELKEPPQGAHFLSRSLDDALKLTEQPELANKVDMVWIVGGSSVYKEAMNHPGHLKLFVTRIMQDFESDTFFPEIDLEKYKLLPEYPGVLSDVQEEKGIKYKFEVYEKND

[2] = system: KM12; experiment: Growth inhibition of human KM12 cells incubated for 48 hrs by sulforhodamine B assay; assay type: functional; settings: KM12, 48 h; for CC50: read-out: pLC50 (the source's name) (converted); for TGI: read-out: pTGI (converted)
[3] = system: SK-MEL-5; experiment: Growth inhibition of human SK-MEL-5 cells incubated for 48 hrs by sulforhodamine B assay; assay type: functional; settings: SK-MEL-5, 48 h; for CC50: read-out: pLC50 (the source's name) (converted); for TGI: read-out: pTGI (converted)
[4] = system: SNB-19; experiment: Growth inhibition of human SNB19 cells incubated for 48 hrs by sulforhodamine B assay; assay type: functional; settings: SNB-19, 48 h; for CC50: read-out: pLC50 (the source's name) (converted); for TGI: read-out: pTGI (converted)
[5] = system: NCI-H226; experiment: Growth inhibition of human NCI-H226 cells incubated for 48 hrs by sulforhodamine B assay; assay type: functional; settings: NCI-H226, 48 h; for TGI: read-out: pTGI (converted)
[6] = system: SR; experiment: Growth inhibition of human SR cells incubated for 48 hrs by sulforhodamine B assay; assay type: functional; settings: for TGI: read-out: pTGI (converted)
[7] = system: HOP-92; experiment: Growth inhibition of human HOP92 cells incubated for 48 hrs by sulforhodamine B assay; assay type: functional; settings: HOP-92, 48 h; for CC50: read-out: pLC50 (the source's name) (converted); for TGI: read-out: pTGI (converted)
[8] = system: C6; experiment: Induction of morphological changes in rat C6 cells assessed as apperance of differentiated morphology with fine and elongated processes after 24 hrs by inverted microscopy analysis; assay type: functional, cell-based
[9] = system: MOLT-4; experiment: Growth inhibition of human MOLT4 cells incubated for 48 hrs by sulforhodamine B assay; assay type: functional; settings: MOLT-4, 48 h; for TGI: read-out: pTGI (converted)
[10] = system: EKVX; experiment: Growth inhibition of human EKVX cells incubated for 48 hrs by sulforhodamine B assay; assay type: functional; settings: for CC50: read-out: pLC50 (the source's name) (converted); for TGI: read-out: pTGI (converted)
[11] = system: HT-29; experiment: Growth inhibition of human HT-29 cells incubated for 48 hrs by sulforhodamine B assay; assay type: functional; settings: HT-29, 48 h; for CC50: read-out: pLC50 (the source's name) (converted); for TGI: read-out: pTGI (converted)
[12] = system: OVCAR-5; experiment: Growth inhibition of human OVCAR5 cells incubated for 48 hrs by sulforhodamine B assay; assay type: functional; settings: OVCAR-5, 48 h; for CC50: read-out: pLC50 (the source's name) (converted); for TGI: read-out: pTGI (converted)
[13] = system: SK-MEL-28; experiment: Growth inhibition of human SK-MEL-28 cells incubated for 48 hrs by sulforhodamine B assay; assay type: functional; settings: SK-MEL-28, 48 h; for CC50: read-out: pLC50 (the source's name) (converted); for TGI: read-out: pTGI (converted)
[14] = system: HOP-62; experiment: Growth inhibition of human HOP62 cells incubated for 48 hrs by sulforhodamine B assay; assay type: functional; settings: HOP-62, 48 h; for CC50: read-out: pLC50 (the source's name) (converted); for TGI: read-out: pTGI (converted)
[15] = system: UACC-62; experiment: Growth inhibition of human UACC62 cells incubated for 48 hrs by sulforhodamine B assay; assay type: functional; settings: UACC-62, 48 h; for CC50: read-out: pLC50 (the source's name) (converted); for TGI: read-out: pTGI (converted)
[16] = system: HCT-15; experiment: Growth inhibition of human HCT15 cells incubated for 48 hrs by sulforhodamine B assay; assay type: functional; settings: HCT-15, 48 h; for CC50: read-out: pLC50 (the source's name) (converted); for TGI: read-out: pTGI (converted)
[17] = system: HT-29; experiment: Growth inhibition of human HT-29 cells at 10^-5 M incubated for 48 hrs by sulforhodamine B assay relative to control; assay type: functional; settings: HT-29, 48 h, read-out: GI
[18] = molecular target: T1, Dihydrofolate reductase (Homo sapiens); experiment: Inhibition of human dihydrofolate reductase assessed as association constant by UV-Vis spectra based Benesi Hilebrand equation analysis
[19] = system: SF-268; experiment: Growth inhibition of human SF268 cells incubated for 48 hrs by sulforhodamine B assay; assay type: functional; settings: SF-268, 48 h; for TGI: read-out: pTGI (converted)
[20] = system: Panel NCI-60 (60 carcinoma cell lines); experiment: Therapeutic index, ratio of LC50 for human NCI60 cells to GI50 for human NCI60 cells measured after 48 hrs by sulforhodamine B assay; assay type: functional
[21] = system: CAKI-1; experiment: Growth inhibition of human Caki1 cells incubated for 48 hrs by sulforhodamine B assay; assay type: functional; settings: CAKI-1, 48 h; for CC50: read-out: pLC50 (the source's name) (converted); for TGI: read-out: pTGI (converted)
[22] = system: HL-60(TB); experiment: Growth inhibition of human HL-60(TB) cells incubated for 48 hrs by sulforhodamine B assay; assay type: functional; settings: HL-60, 48 h; for TGI: read-out: pTGI (converted)
[23] = system: C6; experiment: Cell cycle arrest in rat C6 cells assessed as decrease in cell population at S phase measured after 24 hrs by propidium iodide staining based flow cytometry analysis; assay type: functional
[24] = system: TK-10; experiment: Growth inhibition of human TK10 cells incubated for 48 hrs by sulforhodamine B assay; assay type: functional; settings: TK-10, 48 h; for CC50: read-out: pLC50 (the source's name) (converted); for TGI: read-out: pTGI (converted)
[25] = system: C6; experiment: Induction of morphological changes in rat C6 cells assessed as cellular senescence by measuring cell rounding with distorted morphology after 24 hrs by inverted microscopy analysis; assay type: functional, cell-based
[26] = read-out: LC50 (the source's name)
[27] = read-out: pLC50 (the source's name) (converted)

O=C(OC[C@@H]1CO1)c1cccc2c(=O)c3ccccc3[nH]c12
inhibition [1]: Active
GI50 [2]: 2190 nM
CC50 [2]: > 100000 nM
TGI [2]: 7080 nM
GI50 [3]: 1510 nM
CC50 [3]: 5500 nM
TGI [3]: 2880 nM
GI50 [4]: 2290 nM
CC50 [4]: 28200 nM
TGI [4]: 7760 nM
GI50 [5]: 1580 nM
TGI [5]: 3470 nM
GI50 ([6]; read-out: GI50): 300 nM
CC50 [6, 26]: > 100000 nM
GI50 ([6]; read-out: pGI50 (converted)): 302 nM
CC50 [6, 27]: > 100000 nM
TGI [6]: 4370 nM
GI50 [7]: 2040 nM
CC50 [7]: > 100000 nM
TGI [7]: 5250 nM
Activity [8]: Active
GI50 ([9]; read-out: GI50): 280 nM
CC50 [9, 26]: > 100000 nM
GI50 ([9]; read-out: pGI50 (converted)): 288 nM
CC50 [9, 27]: > 100000 nM
TGI [9]: 2340 nM
GI50 [10]: 2570 nM
CC50 [10]: > 100000 nM
TGI [10]: 6460 nM
GI50 [11]: 2240 nM
CC50 [11]: > 100000 nM
TGI [11]: 7940 nM
GI50 [12]: 2450 nM
CC50 [12]: > 100000 nM
TGI [12]: 6460 nM
GI50 [13]: 2400 nM
CC50 [13]: > 100000 nM
TGI [13]: 5750 nM
GI50 [14]: 2140 nM
CC50 [14]: > 100000 nM
TGI [14]: 5890 nM
GI50 [15]: 1580 nM
CC50 [15]: 6030 nM
TGI [15]: 3090 nM
GI50 [16]: 1660 nM
CC50 [16]: > 100000 nM
TGI [16]: 5250 nM
inhibition of growth at 10 µM [17]: 100%
Ka [18]: 1.6 ×10⁴ /M
GI50 ([19]; read-out: pGI50 (converted)): 1620 nM
CC50 [19, 27]: > 100000 nM
TGI [19]: 6030 nM
TI [20]: 126
GI50 [21]: 1820 nM
CC50 [21]: > 100000 nM
TGI [21]: 8320 nM
GI50 [22]: 1290 nM
CC50 [22, 27]: 8510 nM
TGI [22]: 3310 nM
inhibition [23]: Active
GI50 [24]: 2340 nM
CC50 [24]: > 100000 nM
TGI [24]: 6760 nM

O=c1c2ccccc2n(CC2CO2)c2ccccc12 (racemic)
GI50 [2]: 269 nM
CC50 [2]: 7760 nM
TGI [2]: 977 nM
GI50 [3]: 209 nM
CC50 [3]: 1120 nM
TGI [3]: 468 nM
GI50 [4]: 490 nM
CC50 [4]: > 100000 nM
TGI [4]: 4370 nM
GI50 [5]: 302 nM
CC50 [5, 27]: > 100000 nM
TGI [5]: 1480 nM
GI50 ([6]; read-out: GI50): 50 nM
CC50 [6, 26]: > 100000 nM
GI50 ([6]; read-out: pGI50 (converted)): 50.1 nM
CC50 [6, 27]: > 100000 nM
TGI [6]: 1860 nM
GI50 [7]: 324 nM
CC50 [7]: > 100000 nM
TGI [7]: 3890 nM
GI50 ([9]; read-out: GI50): 40 nM
CC50 [9, 26]: > 100000 nM
GI50 ([9]; read-out: pGI50 (converted)): 41.7 nM
CC50 [9, 27]: > 100000 nM
TGI [9]: 316 nM
Activity [25]: Active
GI50 [10]: 1380 nM
CC50 [10]: > 100000 nM
TGI [10]: 5010 nM
GI50 [11]: 316 nM
CC50 [11]: 23400 nM
TGI [11]: 871 nM
GI50 [12]: 513 nM
CC50 [12]: 24000 nM
TGI [12]: 3630 nM
GI50 [13]: 407 nM
CC50 [13]: 11000 nM
TGI [13]: 1950 nM
GI50 [14]: 380 nM
CC50 [14]: > 100000 nM
TGI [14]: 2750 nM
GI50 [15]: 234 nM
CC50 [15]: 2400 nM
TGI [15]: 603 nM
GI50 [16]: 295 nM
CC50 [16]: > 100000 nM
TGI [16]: 4570 nM
inhibition of growth at 10 µM [17]: 100%
Ka [18]: 1.4 ×10⁴ /M
GI50 ([19]; read-out: GI50): 160 nM
CC50 [19, 26]: > 100000 nM
GI50 ([19]; read-out: pGI50 (converted)): 170 nM
CC50 [19, 27]: > 100000 nM
TGI [19]: 1120 nM
TI [20]: 28
GI50 [21]: 174 nM
CC50 [21]: > 100000 nM
TGI [21]: 692 nM
GI50 [22]: 204 nM
TGI [22]: 490 nM
GI50 [24]: 479 nM
CC50 [24]: > 100000 nM
TGI [24]: 3090 nM

Source: ChEMBL document CHEMBL4359904, “Structural tuning of acridones for developing anticancer agents targeting dihydrofolate reductase” (Bioorg Med Chem Lett, 2019)
